Test [1] deals with Paecilomyces spp. 5332-9a. The class given is cell-based. The following applies: Figure 1 pictures C,D; peptides 2.5 mM, natamycin 50 µg/mL, 80 µL per well; 25 °C, 48 h. On the procedure: (§1) The sixteen peptides were initially tested using the agar well diffusion method against the indicator strains E. coli, L. ivanovii, R. mucilaginosa, and Paecilomyces spp., as previously described in [22]. To perform this procedure, 25 µL of the prepared culture suspension (adjusted to 10^6 CFU/mL for bacteria and yeasts and 10^5 CFU/mL for molds) was diluted in 25 mL of Tryptic Soy Broth (TSB) (for bacterial strains) or Potato Dextrose Broth (PDB) (for fungal strains) supplemented with 0.75% agar and poured into a Petri dish (90 mm diameter) until dried. The culture media of the suspension was prepared using TSB for bacterial cultures and peptone water (10% w/v) supplemented with 0.1% Tween 80 (w/w) for fungal cultures as it enhances spore dispersion. Subsequent to the drying process, wells were formed using a sterile 5 mL pipette. A volume of 80 µL of each peptide at a concentration of 2.5 mM was added to each well. Ampicillin (MilliporeSigma Canada Ltd., Oakville, ON, Canada), at a concentration of 256 µg/mL and natamycin (MilliporeSigma Canada Ltd., Oakville, ON, Canada) at 50 µg/mL, were used as positive controls for bacterial and fungal tests, respectively, as they are wide-spectrum antimicrobials. The solvent of the peptides was included as negative control in all experiments. […] Thereafter, inhibition halos were measured, and images were captured using a Biorad Chemidoc camera.

Test [2] has as its system Rhodotorula mucilaginosa 27173. The format is cell-based. The settings on record: Figure 1 pictures A,B; peptides 2.5 mM, natamycin 50 µg/mL, 80 µL per well; 25 °C, 48 h. On the procedure: as §1
The subject of a further test is C. guilliermondii 27168. The format is cell-based, Candida guilliermondii. The settings on record: 48 h. The protocol: (§2) A microtitration assay was conducted to determine the minimum inhibitory concentration (MIC) of the peptides against the collection of indicator microorganisms. The growth medium used for the isolated bacterial and fungal strains was TSB and PDB, respectively. In brief, 175 µL of the culture medium was added to the wells of column 1 (negative growth control) and 125 µL to the wells of columns 2–12. Subsequently, 125 µL of each peptide (stock concentration of 2.5 mM), positive control (stock concentration of 256 µg/mL for ampicillin in bacterial tests and 50 µg/mL for natamycin in fungal tests) and negative control (10% DMSO in H2O (v/v)) were added to the wells in column 3 and mixed by pipetting up and down 10 times. A total of 125 µL from column 3 was removed and transferred to column 4, where serial dilutions were performed until the final dilution reached column 12. The final volume was then discarded. […]
(§3) The minimal bactericidal/fungicidal concentration (MBC/MFC) was calculated by transferring 10 µL of the wells where no growth could be detected to agar plates (TSA for bacterial isolates and Dichloran Rose Bengal Chloramphenicol Agar (DBRC)) (BD Difco Laboratories, Sparks, MD, USA). […] The MBC/MIC and MFC/MIC ratios were calculated in order to ascertain the effect of the peptides. […]

The test system of the next test is Mucor racemosus LMA-722. The class given is cell-based. The following applies: 48 h. The protocol: (§4) A microtitration assay was conducted to determine the minimum inhibitory concentration (MIC) of the peptides against the collection of indicator microorganisms. The growth medium used for the isolated bacterial and fungal strains was TSB and PDB, respectively. In brief, 175 µL of the culture medium was added to the wells of column 1 (negative growth control) and 125 µL to the wells of columns 2–12. Subsequently, 125 µL of each peptide (stock concentration of 2.5 mM), positive control (stock concentration of 256 µg/mL for ampicillin in bacterial tests and 50 µg/mL for natamycin in fungal tests) and negative control (10% DMSO in H2O (v/v)) were added to the wells in column 3 and mixed by pipetting up and down 10 times. A total of 125 µL from column 3 was removed and transferred to column 4, where serial dilutions were performed until the final dilution reached column 12. The final volume was then discarded. […] Subsequently, 50 µL of the indicator strain suspension (at a concentration of 10^5 CFU/mL for yeasts and bacteria and 10^4 CFU/mL for molds) was introduced to all the wells, except for column 1. The culture medium used for culture suspension was identical to that employed in the agar well diffusion method. The microplate was incubated for 24 h at 37 °C for bacterial isolates and for 48 h at 25 °C for fungal isolates.
(§5) The minimal bactericidal/fungicidal concentration (MBC/MFC) was calculated by transferring 10 µL of the wells where no growth could be detected to agar plates (TSA for bacterial isolates and Dichloran Rose Bengal Chloramphenicol Agar (DBRC)) (BD Difco Laboratories, Sparks, MD, USA). After incubation (24 h, 37 °C for bacteria and 48 h, 25 °C, for fungi), the peptide concentration with which no growth was observed, was considered to be the MBC/MFC. The MBC/MIC and MFC/MIC ratios were calculated in order to ascertain the effect of the peptides. A ratio of ≤4 is indicative of bactericidal/fungicidal efficacy, whereas a ratio of >4 indicates bacteriostatic/fungistatic activity.

Test [3] deals with Paecilomyces spp. 5332-9a. The class given is cell-based. The following applies: 48 h. The protocol:
as §4, §5

Test [4] deals with Penicillium chrysogenum LMA-212. The class given is cell-based. The settings on record: 48 h. On the procedure:
as §4, §5

Test [5] deals with Rhodotorula mucilaginosa 27173. The format is cell-based. The settings on record: 48 h. The protocol: as §4, §5
For test [6], the system named is Debaryomyces hansenii LL11042. The format is cell-based. The settings on record: 48 h. On the procedure:
as §4, §5

A further test deals with Eurotium rubrum 3071.14a. The format is cell-based. The settings on record: 48 h. On the procedure: as §4, §5
A further test has as its system A. versicolor LMA-370. The format is cell-based, Aspergillus versicolor. The following applies: 48 h. On the procedure:
as §4, §5

For another test, the system named is P. commune 27163. The class given is cell-based, Penicillium commune. The following applies: 48 h. The protocol:
as §2, §3

Where no end group is shown, it is not given here.

These results are taken from PMC11719724, “Antimicrobial Peptides from Porcine Blood Cruor Hydrolysates as a Promising Source of Antifungal Activity” (Foods, 2024).

Consider `C[C@@H]1C/C=C/C=C/C=C/C=C/[C@H](O[C@@H]2O[C@H](C)[C@@H](O)[C@H](N)[C@@H]2O)C[C@@H]2O[C@](O)(C[C@@H](O)C[C@H]3O[C@@H]3/C=C/C(=O)O1)C[C@H](O)[C@H]2C(=O)O` [Natamycin, natamycin], for which the “inhibition halo (qualitative)” value in [1] and in test [2] was “Clear inhibition halos” throughout.
With FQKVVAGVANALAHKYH [Pep5], in the test on C. guilliermondii 27168, the “MFC, Candida guilliermondii” value amounted to 625 ± 0 µM and the “MIC, Candida guilliermondii” value was determined as 312 ± 0 µM. In the test with Mucor racemosus LMA-722, the “MFC, Mucor racemosus” value is 312 ± 0 µM and the “MIC, Mucor racemosus” value came to 312 ± 0 µM. Moreover, in test [3], the “MFC, Activity Against Paecilomyces spp.” value was 9 ± 0 µM and the “MIC, Activity Against Paecilomyces spp.” value is 9 ± 0 µM. In addition, the “MIC, Penicillium chrysogenum” value in test [4] came out at 312 ± 0 µM. In test [5], the “MFC, Activity Against R. mucilaginosa” value is 78 ± 0 µM and the “MIC, Activity Against R. mucilaginosa” value was 39 ± 0 µM. Moreover, in [6], the “MFC, Debaryomyces hansenii” value stood at 156 ± 0 µM and the “MIC, Debaryomyces hansenii” value is 156 ± 0 µM. Besides, in the test with Eurotium rubrum 3071.14a, the “MFC, Eurotium rubrum” value worked out at 78 ± 0 µM and the “MIC, Eurotium rubrum” value worked out at 39 ± 0 µM. For the same compound, in the test with A. versicolor LMA-370, the “MFC, Aspergillus versicolor” value came to 78 ± 0 µM and the “MIC, Aspergillus versicolor” value was 39 ± 0 µM. In addition, in the test on P. commune 27163, the “MFC, Penicillium commune” value came out at 312 ± 0 µM and the “MIC, Penicillium commune” value was 312 ± 0 µM.
As to FRLLGNVIVVV [Pep4], in [3], the “MFC, Activity Against Paecilomyces spp.” value is 625 ± 0 µM and the “MIC, Activity Against Paecilomyces spp.” value turned out to be 625 ± 0 µM. For the same compound, the “MIC, Penicillium chrysogenum” value in test [4] turned out to be 156 ± 0 µM. Further, in test [5], the “MIC, Activity Against R. mucilaginosa” value turned out to be 375 µM. Further, the “MIC, Debaryomyces hansenii” value in test [6] came out at 312 ± 0 µM. Further, the “MIC, Eurotium rubrum” value against Eurotium rubrum 3071.14a was found to be 312 ± 0 µM. Further, the “MIC, Aspergillus versicolor” value with A. versicolor LMA-370 worked out at 312 ± 0 µM.
In the case of LAHKYH [Pep15], the “MIC, Activity Against Paecilomyces spp.” value in test [3] came to 1250 ± 0 µM. In [5], the “MFC, Activity Against R. mucilaginosa” value turned out to be 1250 ± 0 µM and the “MIC, Activity Against R. mucilaginosa” value was 1250 ± 0 µM.
As to NALAHKYH [Pep3], in test [3], the “MFC, Activity Against Paecilomyces spp.” value came out at 1250 ± 0 µM and the “MIC, Activity Against Paecilomyces spp.” value is 625 ± 0 µM. Further, in test [5], the “MFC, Activity Against R. mucilaginosa” value amounted to 625 ± 0 µM and the “MIC, Activity Against R. mucilaginosa” value was 625 ± 0 µM.
Consider QKVVAGVANALAHKYH [Pep14], for which, in [3], the “MFC, Activity Against Paecilomyces spp.” value was 78 ± 0 µM and the “MIC, Activity Against Paecilomyces spp.” value turned out to be 78 ± 0 µM. In addition, in test [5], the “MFC, Activity Against R. mucilaginosa” value worked out at 78 ± 0 µM and the “MIC, Activity Against R. mucilaginosa” value was found to be 78 ± 0 µM.
